This assay has as its target Leucine-rich repeat serine/threonine-protein kinase 2 (Homo sapiens, UniProt Q5S007). Nature of the assay: LRRK2 Enzymatic Assay: LRRKtide substrate (peptide sequence RLGRDKYKTLRQIRQ, derived from human ezrin [amino acids 561-573], moesin [amino acids 539-553] and radixin [amino acids 558-570], obtained from SignalChem, catalogue #L10-58, reconstituted in 20 mM Tris-HCl at pH 7.5 to a final concentration of 1 mg/mL, assay concentration 20 μM) and recombinant human LRRK2 (catalytic domain only [amino acids 970-2527], GST-tagged, expressed in insect cells, obtained from ThermoFisher Scientific, catalogue #PV4874, 0.35 mg/mL, assay concentration 30 nM) were mixed in assay buffer (20 mM Hepes pH 7.5, 10 mM MgCl, 1 mM EGTA, 0.02% Brij35, 0.02 mg/ml BSA, 0.1 mM NaVO, 2 mM DTT, 1% DMSO). Compounds of interest (in DMSO, serial 3-fold dilution from 10 μM to 0.5 nM) or control (1% DMSO) were dispensed into the kinase reaction mixture by Acoustic technology (Echo550; nanoliter range). After incubation at room temperature for 20 minutes, the kinase reaction was initiated by addition of [P]-ATP (Specific activity 10 μCi/μl) and the mixture was incubated at room temperature for 2 hours. The reaction was then stopped by spotting the reaction mixture on strips of phosphocellulose P81 paper. Following washing, the radioactivity of the P81 paper was measured and kinase activity data were expressed as the percent remaining kinase activity in test samples compared to vehicle (dimethyl sulfoxide) reactions.

This passage reports IC50 results from ChEMBL document CHEMBL5729586, “Inhibitors of LRRK2 kinase” (2023).

Leucine-rich repeat serine/threonine-protein kinase 2, sequence (Q5S007 whole entry, the tested form may be a part): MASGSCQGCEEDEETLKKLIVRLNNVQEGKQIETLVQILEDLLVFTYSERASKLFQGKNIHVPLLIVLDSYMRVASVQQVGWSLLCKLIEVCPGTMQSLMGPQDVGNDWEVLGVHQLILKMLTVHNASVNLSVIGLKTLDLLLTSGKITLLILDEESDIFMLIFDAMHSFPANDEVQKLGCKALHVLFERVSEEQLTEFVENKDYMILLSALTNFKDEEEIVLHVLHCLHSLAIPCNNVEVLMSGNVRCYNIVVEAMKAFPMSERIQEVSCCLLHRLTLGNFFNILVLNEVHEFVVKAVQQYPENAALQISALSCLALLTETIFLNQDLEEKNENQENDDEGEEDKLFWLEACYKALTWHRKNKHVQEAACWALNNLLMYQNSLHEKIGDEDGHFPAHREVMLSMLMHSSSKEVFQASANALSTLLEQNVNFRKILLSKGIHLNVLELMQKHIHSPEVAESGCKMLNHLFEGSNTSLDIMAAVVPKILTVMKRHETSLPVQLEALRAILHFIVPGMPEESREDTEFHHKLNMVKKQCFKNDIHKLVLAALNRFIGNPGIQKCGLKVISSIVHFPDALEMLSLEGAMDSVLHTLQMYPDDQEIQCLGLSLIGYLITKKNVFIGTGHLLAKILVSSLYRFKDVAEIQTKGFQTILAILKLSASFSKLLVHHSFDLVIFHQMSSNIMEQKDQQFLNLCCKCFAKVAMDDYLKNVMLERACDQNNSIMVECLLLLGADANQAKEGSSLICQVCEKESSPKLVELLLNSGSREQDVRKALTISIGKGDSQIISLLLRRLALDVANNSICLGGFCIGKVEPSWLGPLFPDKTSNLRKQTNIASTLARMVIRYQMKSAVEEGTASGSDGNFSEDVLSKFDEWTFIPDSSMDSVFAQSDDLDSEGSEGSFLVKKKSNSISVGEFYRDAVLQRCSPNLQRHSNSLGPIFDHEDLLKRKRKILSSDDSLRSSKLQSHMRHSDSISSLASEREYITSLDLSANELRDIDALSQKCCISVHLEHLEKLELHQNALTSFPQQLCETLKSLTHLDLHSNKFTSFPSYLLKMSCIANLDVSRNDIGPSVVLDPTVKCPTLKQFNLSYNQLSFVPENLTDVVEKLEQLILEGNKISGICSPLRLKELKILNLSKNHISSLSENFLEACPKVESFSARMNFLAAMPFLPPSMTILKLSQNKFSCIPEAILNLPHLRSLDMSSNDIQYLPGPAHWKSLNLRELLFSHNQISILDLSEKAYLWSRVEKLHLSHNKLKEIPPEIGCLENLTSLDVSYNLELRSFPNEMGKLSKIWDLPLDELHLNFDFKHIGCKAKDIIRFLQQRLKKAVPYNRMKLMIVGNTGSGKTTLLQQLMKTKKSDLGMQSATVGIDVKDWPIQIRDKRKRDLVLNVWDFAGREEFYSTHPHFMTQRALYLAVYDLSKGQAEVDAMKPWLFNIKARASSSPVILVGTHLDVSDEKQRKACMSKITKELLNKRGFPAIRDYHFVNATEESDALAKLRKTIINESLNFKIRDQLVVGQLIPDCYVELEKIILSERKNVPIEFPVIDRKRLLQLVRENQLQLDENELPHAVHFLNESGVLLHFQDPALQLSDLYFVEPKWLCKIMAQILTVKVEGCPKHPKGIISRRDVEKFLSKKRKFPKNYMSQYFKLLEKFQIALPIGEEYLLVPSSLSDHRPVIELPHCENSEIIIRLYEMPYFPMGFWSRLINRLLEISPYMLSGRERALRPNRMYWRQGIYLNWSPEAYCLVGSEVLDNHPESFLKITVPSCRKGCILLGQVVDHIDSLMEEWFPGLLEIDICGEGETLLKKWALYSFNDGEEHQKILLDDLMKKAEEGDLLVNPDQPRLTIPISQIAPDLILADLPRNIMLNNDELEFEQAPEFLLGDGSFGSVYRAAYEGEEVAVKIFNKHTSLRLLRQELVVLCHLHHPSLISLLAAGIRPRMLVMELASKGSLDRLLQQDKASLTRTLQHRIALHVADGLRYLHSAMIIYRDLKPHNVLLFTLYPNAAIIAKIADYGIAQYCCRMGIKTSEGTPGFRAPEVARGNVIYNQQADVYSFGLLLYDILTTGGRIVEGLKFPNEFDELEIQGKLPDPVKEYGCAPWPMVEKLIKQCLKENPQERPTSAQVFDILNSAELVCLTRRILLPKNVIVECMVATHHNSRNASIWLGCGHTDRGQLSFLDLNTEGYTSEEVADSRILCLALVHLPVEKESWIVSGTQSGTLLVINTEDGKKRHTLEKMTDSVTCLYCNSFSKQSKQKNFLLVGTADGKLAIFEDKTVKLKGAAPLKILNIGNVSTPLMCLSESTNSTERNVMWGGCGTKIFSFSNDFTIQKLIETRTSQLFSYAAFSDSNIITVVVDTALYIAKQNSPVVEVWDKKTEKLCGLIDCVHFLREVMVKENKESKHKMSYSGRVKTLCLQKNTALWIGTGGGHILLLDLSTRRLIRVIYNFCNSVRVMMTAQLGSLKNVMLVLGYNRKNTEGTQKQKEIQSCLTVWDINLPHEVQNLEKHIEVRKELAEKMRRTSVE

Broadly, the IC50 is the concentration that inhibits the measured activity by half. With `CC(N[C@H]1CC[C@H](COc2ccnc(Nc3ccc(N4CCOCC4)cc3)n2)CC1)C(F)(F)F` (stereo partly drawn), the half-inhibitory concentration (IC50) was greater than 400 nM.
`CN[C@H]1CC[C@H](COc2nc(Nc3cnn(C(C)C)c3)ncc2Cl)CC1`: the IC50 is less than 50 nM.
Under `CC(=O)N[C@H]1CC[C@H](COc2nc(Nc3cnn(CCO)c3)ncc2F)CC1` stands less than 50 nM.
Then `Cc1nn(C(C)(C)C#N)cc1Nc1ncc(F)c(OCC2CCNCC2(F)F)n1` (stereo not drawn), with less than 50 nM.
Then `CN[C@H]1CC[C@H](COc2nc(Nc3cn(C(C)(C)C#N)nc3C)ncc2C2CC2)CC1`, with less than 50 nM; and `FC(F)CN[C@H]1CC[C@H](COc2nc(Nc3ccc(N4CCOCC4)cc3)ncc2Cl)CC1`, with less than 50 nM; and `CC(=O)N[C@H]1CC[C@H](COc2nc(Nc3ccc(N4C[C@@H](C)O[C@@H](C)C4)cc3)ncc2C)CC1`, with less than 50 nM.
Consider `CC(=O)N[C@H]1CC[C@@H](COc2nc(Nc3ccc(N4C[C@@H](C)O[C@@H](C)C4)cc3)ncc2F)C1`, for which the half-inhibitory concentration (IC50) is less than 50 nM.
